# In patent US12508342B2, “Debridement composition” (priority 2020, dated 2025):
# Key:
# [1] = Simulated wound matrix disruption on 96-peg lid, test solutions (Example 1); details: for % Difference in Efficacy (chelators) / % Difference in Efficacy (surfactants): 1% w/w solution, 37° C., 1 hour, absorbance at 595 nm, with respect to 1% w/w benzethonium chloride aqueous solution; for efficacy relative to benzalkonium chloride, cocoamidopropyl betaine and Poloxamer 188 / efficacy in disrupting the simulated test wound matrix relative to SLS: 1% w/w; for efficacy in disrupting the simulated test wound matrix relative to SLS: compared with SLS
# Experimental: The following examples are prepared and evaluated using a simulated wound matrix composition. A wound matrix is prepared to contain:
# The pegs are dipped into the simulated wound matrix and immediately transferred to a calcium chloride bath to achieve cross-linking. Solutions of test materials are prepared at 1% w/w in a 96 well microtiter plate. Following crosslinking, the pegs are inserted into the wells and incubated at 37° C. for 1 hour. Efficacy is characterised by the change in colour of the test solutions resulting from disruption of the stained material and is quantified by reading the absorbance of each solution at 595 nm. Results are presented with respect to a 1% w/w benzethonium chloride aqueous solution.
# [2] = AKZO Nobel published values using modified Davies HLB group numbers; cited from earlier work
Compound,% Difference in Efficacy (chelators) [1],HLB Value [2],% Difference in Efficacy (surfactants) [1],also measured
O=C(O)CC(O)(CC(=O)O)C(=O)O [Citric Acid],+50%,,,
O=C([O-])C(=O)[O-].[K+].[K+] [Potassium Oxalate],+1350%,,,
O=P([O-])(O)O.[Na+] [Sodium Di-hydrogen Phosphate],−70%,,,
"CCCCCCCCCCCCOS(=O)(=O)[O-].[Na+] [Sodium Dodecyl Sulphate, reference compound]",,33.0,−99%,
CCCCCCCC/C=C\CCCCCCCC(=O)[O-].[Na+] [Sodium Oleate],,10.55,+996%,"efficacy relative to benzalkonium chloride, cocoamidopropyl betaine and Poloxamer 188 [1]: an order of magnitude greater; efficacy in disrupting the simulated test wound matrix relative to SLS [1]: an order of magnitude greater"
O=C([O-])CC(O)(CC(=O)[O-])C(=O)[O-].[Na+].[Na+].[Na+] [Tris-odium Citrate],+1750%,,,
Benzalkonium Chloride [reference compound],,,+60%,
Cocoamidopropyl betaine,,,+120%,
Di-sodium Lauryl Sulfosuccinate,,,+844%,"efficacy relative to benzalkonium chloride, cocoamidopropyl betaine and Poloxamer 188 [1]: an order of magnitude greater; efficacy in disrupting the simulated test wound matrix relative to SLS [1]: an order of magnitude greater"
Poloxamer 188 [reference compound],,3.4,−90%,
Sodium Laureth-2 Sulphate,,15.3,−30%,
